Data from patent publication US4839375A, “(Aryl or heteroaromatic methyl)-2,2'-bi-1H-imidazoles and their use as anti-hypertensive agents” (Merrell Dow Pharmaceuticals Inc., priority 1987, dated 1989).

biological target: T1, dopamine β-hydroxylase (DBH) (Bos taurus, UniProt P15101); test: DBH inhibition, oxygen uptake followed with a polarographic electrode and oxygen monitor; format: biochemical; conditions: ascorbate electron donor, tyramine substrate; pH 4.5 to 5.5, preferably pH 5.0; 20° C. to 40° C., preferably 37° C.; read-out: DBH inhibitory activity, IC50 (concentration at which the reaction is inhibited by 50%)
T1 sequence (P15101 1-610): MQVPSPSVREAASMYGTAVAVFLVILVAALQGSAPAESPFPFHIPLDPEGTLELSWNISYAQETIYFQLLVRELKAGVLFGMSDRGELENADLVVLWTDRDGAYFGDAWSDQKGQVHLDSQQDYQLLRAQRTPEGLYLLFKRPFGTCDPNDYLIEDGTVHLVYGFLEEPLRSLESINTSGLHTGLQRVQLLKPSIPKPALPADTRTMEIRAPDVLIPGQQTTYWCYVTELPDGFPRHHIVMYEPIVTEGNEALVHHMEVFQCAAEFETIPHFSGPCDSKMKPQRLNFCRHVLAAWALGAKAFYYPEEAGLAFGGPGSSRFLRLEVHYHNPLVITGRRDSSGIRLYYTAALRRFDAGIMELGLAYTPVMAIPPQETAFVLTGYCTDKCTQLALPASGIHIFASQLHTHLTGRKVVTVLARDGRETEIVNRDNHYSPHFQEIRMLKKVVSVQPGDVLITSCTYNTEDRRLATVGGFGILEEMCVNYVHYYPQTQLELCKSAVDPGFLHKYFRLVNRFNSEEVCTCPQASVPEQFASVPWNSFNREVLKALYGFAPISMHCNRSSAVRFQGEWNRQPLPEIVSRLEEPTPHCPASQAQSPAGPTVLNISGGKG
Method: The DBH inhibitory properties of the compounds of this invention can readily be determined by standard and well-known procedures. For example, inhibition of DBH was determined by a procedure wherein enzymatic activity was ascertained in aqueous solution in the presence of molecular oxygen, an electron donor such as ascorbate, a substrate such as tyramine, an inhibitor, and the necessary cofactors for the enzyme at a pH of 4.5 to 5.5, preferably pH 5.0, and at a temperature of 20° C. to 40° C., preferably 37° C. The inhibitor was assayed over a range of concentrations. Each reaction was followed by measuring oxygen uptake as an indication of enzyme activity using a polarographic electrode and an oxygen monitor, following the method of S. May, et al., J. Biol. Chem., 256, 2258 (1981).

| IC50 | Structure (SMILES) |
| --- | --- |
| 8.8 µM | c1c[nH]c(-c2nc(Cc3ccsc3)c[nH]2)n1 [4-(3-thienylmethyl)-2,2'-bi-1H-imidazole] |
| 65.5 µM | c1csc(Cn2ccnc2-c2ncc[nH]2)c1 [1-(2-Thienylmethyl)-2,2'-bi-1H-imidazole] |
| 29 µM | c1c[nH]c(-c2nccn2Cc2ccsc2)n1 [1-(3-thienylmethyl)-2,2'-bi-1H-imidazole] |
